Measured values as given in patent publication US9853225B2, “Chalcogen-containing organic compound and a use thereof” (JNC CORPORATION, priority 2013, dated 2017).

What was measured:
[1] = Evaluation of thermal stability, TG/DTA; assay type: physicochemical; settings: heating 5° C. per minute
[2] = Evaluation of thermal stability, DSC; assay type: physicochemical; settings: heating 5° C. per minute
[3] = Evaluation of chemical stability, UV-Vis spectra of film standing in atmospheric air; assay type: physicochemical; settings: vacuum-deposited film 100 nanometers, one week in atmospheric air
Text: A film having a thickness of 100 nanometers formed by performing vacuum deposition of the compound synthesized in Example 4 was allowed to stand for one week in atmospheric air. The results obtained by measuring UV-Vis spectra (device used: Jasco V-570 Spectrometer, made by JASCO Corporation) over time during the period are shown in FIG. 3. […] According to the above, the compound of the present invention is clearly found to be chemically stable too.

Structure (SMILES) | melting point | 5% weight reduction temperature [1] | phase transition points [2] | change of UV-Vis spectrum of film [3]
CCCCCCCCCCc1ccc2cc3c(cc2c1)oc1cc2c(cc13)oc1cc3cc(CCCCCCCCCC)ccc3cc12 [Example 3, 3,11-didecyldinaphtho[2,3-d:2′,3′-d′]benzo[1,2-b:4,5-b′]difuran] | ≥ 350 °C |  |  | 
CCCCCCc1ccc2cc3c(cc2c1)sc1cc2c(cc13)sc1cc3cc(CCCCCC)ccc3cc12 [Example 5, 3,11-dihexyldinaphtho[2,3-d:2′,3′-d′]benzo[1,2-b:4,5-b′]dithiophene] | > 300 °C |  |  | 
CCCCCCCCCCc1ccc2cc3c(cc2c1)sc1cc2cc4c(cc2cc13)sc1cc2cc(CCCCCCCCCC)ccc2cc14 [Example 7] | ≥ 300 °C | 450 °C | no phase transition point was observed | no change of the spectrum was observed
CCCCCCCCCCc1ccc2cc3sc4cc5c(cc4c3cc2c1)sc1cc2ccc(CCCCCCCCCC)cc2cc15 [Example 2, 2,10-didecyldinaphtho[2,3-d:2′,3′-d′]benzo[1,2-b:4,5-b′]dithiophene] | 285 to 286 °C |  |  | 
CCCCCCCCCCc1ccc2cc3oc4cc5c(cc4c3cc2c1)oc1cc2ccc(CCCCCCCCCC)cc2cc15 [Example 1, 2,10-didecyldinaphtho[2,3-d:2′,3′-d′]benzo[1,2-b:4,5-b′]difuran] | 316 to 317 °C |  |  | 
CCCCCCCCCCc1ccc2cc3c(cc2c1)sc1cc2c(cc13)sc1cc3cc(CCCCCCCCCC)ccc3cc12 [Example 4, 3,11-didecyldinaphtho[2,3-d:2′,3′-d′]benzo[1,2-b:4,5-b′]dithiophene] | 263 to 264 °C | 426 °C |  | no change of the spectrum was observed
